Measured values taken from patent US8299054B2, “Cyclic 11-beta hydroxysteroid dehydrogenase type 1 inhibitors” (Bristol-Myers Squibb Company, priority 2006, dated 2012).
Where two headings read alike, the source gives them in different places.

Tests used:
11beta-HSD1 = target: T1, 11beta-HSD1 (Mus musculus, UniProt P50172); assay: In vivo inhibition of 11beta-HSD1: DHC administration to DIO mice, plasma corticosterone AUC; conditions: 30 mpK, oral, DHC 10 mg/kg 60 minutes after compound
T1 construct: from tissue; host or cells: whole animal: diet induced obese (DIO) mice, Jackson Laboratory

[1] = target: recombinant human 11beta-HSD1 (Homo sapiens, UniProt P28845); assay: 11β-HSD-1 SPA Enzyme Assay (Scintillation Proximity assay, microsomes of transfected HEK 293 EBNA cells)
Method: The supernatant was further centrifuged at 105,000×g for 60 min. The 105,000×g pellet was resuspended in buffer H and centrifuged at 105,000×g for 60 min. […] Aliquots were stored at −80° C. until needed. The protein concentration was measured by the BioRad method using BSA standard.
Compounds were dissolved in DMSO to obtain 10 mM stock concentrations. From the 10 mM stock, the compounds were diluted in DMSO to achieve the concentrations.
11β-HSD-1 was assayed by Scintillation Proximity assay in a 384-well Perkin Elmer white plate. The dose response of the compounds was determined using 11 half-log dilutions of compound in DMSO in duplicate. To each well, 0.5 μl of compound dilution in DMSO were added. 15 μl of assay buffer (for blanks) or 15 μl of human microsomes in assay buffer were added next and the plates were incubated for 10 min at room temperature. […] Duplicates were in the same plate one row below the other. 10 μl of ^3H-cortisone (final concentration 40 nM) was added to each well and the plate was spun down to mix and bring down the contents to the bottom of the wells. The plates were incubated at room temperature with gentle shaking for 4 hrs. The reaction was stopped with addition of 10 μl of 10 mM carbenoxolone. Then, 0.5 mg of yttrium silicate SPA beads coupled to anti-cortisol antibody in 20 μl were added to all the wells of plate, which were spun down once more and incubated at room temperature overnight. The plate was read in a TopCount® (1 min/well). Data were uploaded automatically to Tool Set, a Lead Evaluation informatics program for data capture and calculation. Graphs were generated with the Curve Master program.

[2] = system: hepatic glucose production; conditions: patients with type 2 diabetes, seven days, versus placebo; cited from earlier work
[3] = read-out: h HSD1 IC50, human microsomes, 40 nM 3H-cortisone, 4 hrs at room temperature

Sequence of recombinant human 11beta-HSD1 (P28845 whole entry): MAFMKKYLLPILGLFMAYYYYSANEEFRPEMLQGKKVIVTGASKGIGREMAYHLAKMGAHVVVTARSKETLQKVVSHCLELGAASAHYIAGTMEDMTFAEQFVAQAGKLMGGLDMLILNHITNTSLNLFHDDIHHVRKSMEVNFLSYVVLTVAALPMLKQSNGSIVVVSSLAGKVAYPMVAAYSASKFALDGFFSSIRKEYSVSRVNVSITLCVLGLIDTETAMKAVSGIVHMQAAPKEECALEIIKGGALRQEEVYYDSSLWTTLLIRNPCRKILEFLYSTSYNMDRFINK
T1 sequence (P50172 whole entry): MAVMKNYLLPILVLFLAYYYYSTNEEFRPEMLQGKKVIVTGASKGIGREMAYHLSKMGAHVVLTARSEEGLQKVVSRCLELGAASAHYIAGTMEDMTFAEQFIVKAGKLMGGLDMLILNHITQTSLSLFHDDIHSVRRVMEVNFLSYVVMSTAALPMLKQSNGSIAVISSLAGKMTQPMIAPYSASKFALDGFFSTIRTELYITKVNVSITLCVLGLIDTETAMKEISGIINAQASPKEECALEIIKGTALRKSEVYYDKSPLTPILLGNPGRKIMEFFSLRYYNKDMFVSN

Row | Structure (SMILES) | IC50 [1] | further results
1 | O=C(O)COC1(c2ccc(F)cc2)C2CC3CC(C2)CC1C3 (centres unmarked) [Example 8] | 633 nM | 
2 | CS(=O)(=O)NC(=O)CC1(c2ccc(F)cc2)C2CC3CC(C2)CC1C3 (centres unmarked) [Example 22] | 159 nM | 
3 | O=C(CC1(c2ccc(F)cc2)C2CCCC1CC(O)C2)N1CC(O)C1 (centres unmarked) [Example 23, 2-(9-(4-Fluorophenyl)-3-hydroxybicyclo[3.3.1]nonan-9-yl)-1-(3-hydroxyazetidin-1-yl)ethanone] |  | IC50 [1, 3]: 8.3 nM
4 | Cn1nnc(C2CN(C(=O)CC3(c4ccccc4)C4CC5CC3CC(C4)C5O)C2)n1 (centres unmarked) [Example 28] |  | IC50 [1, 3]: 10 nM
5 | CNC(=O)OC1CN(C(=O)C[C@]2(c3ccc(F)cc3)C3CC4CC2C[C@](C(N)=O)(C4)C3)C1 [Example 32] | 21 nM | 
6 | Cc1nnc(C2CN(C(=O)CC3(c4ccccc4)C4CC5CC3CC(C4)C5O)C2)o1 (centres unmarked) [Example 34] |  | IC50 [1, 3]: 196 nM
7 | O=C(CC1(c2ccccc2)C2CC3CC1CC(C2)C3O)N1CC(c2nnc3ccccn23)C1 (centres unmarked) [Example 35] | 636 nM | 
8 | Cc1nnc(COC2CN(C(=O)CC3(c4ccccc4)C4CC5CC3CC(C4)C5O)C2)o1 (centres unmarked) [Example 36] |  | IC50 [1, 3]: 14 nM
9 | O=C(N1CC(O)C1)C1(Cc2ccccc2Cl)C2CC3CC(C2)CC1C3 (centres unmarked) [Example 37] | 15 nM | 
10 | O=C(O)CC1(Cc2ccccc2)C2CCCC1CCC2 (centres unmarked) [Example 49] | 97 nM | 
11 | O=C(O)C1(Cc2coc(-c3ccc(F)cc3)n2)C2CC3CC(C2)CC1C3 (centres unmarked) [Example 55] | 2980 nM | 
12 | COC(=O)C1CN1C(=O)CC1(c2ccc(F)cc2)C2CC3CC(C2)CC1C3 (centres unmarked) [Example 79] | 81 nM | 
13 | C=CCO[C@]12CC3CC(C1)[C@](CC(=O)N1CC(O)C1)(c1ccc(F)cc1)C(C3)C2 [Example 98] | 1.6 nM | 
14 | O=C(O)C1CN(C(=O)C2CN(C(=O)CC3(Cc4ccccc4)C4CC5CC(C4)CC3C5)C2)C1 (centres unmarked) [Example 106] | 457 nM | 
15 | O=C(O)COC1CN(C(=O)CC2(c3ccc(F)cc3)C3CC4CC(C3)CC2C4)C1 (centres unmarked) [Example 117] | 90 nM | 
16 | O=C(C[C@]1(Cc2ccccc2)C2CC3CC1C[C@@](O)(C3)C2)N1CC(O)C1 [Example 122] | 253 nM | 
17 | O=C(O)C1(Cc2cccc(F)c2)C2CC3CC(C2)CC1C3 (centres unmarked) [Example 132] | 15 nM | 
18 | C=C1CC2CCC(C1)C2(CC(=O)O)c1ccc(F)cc1 (centres unmarked) [Example 134] | 30 nM | 

Row | Structure (SMILES) | IC50 [1] | further results
19 | O=C(O)C1(CCc2ccccc2)C2CC3CC(C2)CC1C3 (centres unmarked) [Example 136] | 1150 nM | 
20 | Cc1noc(C)c1CC1(C(=O)O)C2CC3CC(C2)CC1C3 (centres unmarked) [Example 140] | 651 nM | 
21 | O=C(C[C@]1(Cc2ccccc2Cl)C2CC3CC1C[C@](O)(C3)C2)N1CC(O)C1 [Example 167] | 20 nM | 
22 | O=C(CC1(c2ccc(F)cc2)C2CC3CC(C2)CC1C3)N1CC(Oc2ccccc2)C1 (centres unmarked) [Example 174] | 1 nM | 
23 | O=C(C[C@]1(c2ccc(F)cc2)C2CC3CC1C[C@@](C(=O)O)(C3)C2)N1CC(O)C1 [Example 181] | 128 nM | 
24 | N#Cc1ccc(OC2CN(C(=O)CC3(c4ccc(F)cc4)C4CC5CC(C4)CC3C5)C2)nc1 (centres unmarked) [Example 182] | 2.4 nM | 
25 | CC1(CC(=O)N2CC(NC(=O)OCc3ccccc3)C2)C2CC3CC1CC(C2)C3O (centres unmarked) [Example 183] | 182 nM | 
26 | CC(C(=O)N1CC(O)C1)C1(c2ccc(F)cc2)C2CC3CC(C2)CC1C3 (centres unmarked) [Example 188] | 121 nM | 
27 | O=C(O)C(C(=O)N1CC(O)C1)C1(c2ccc(F)cc2)C2CC3CC(C2)CC1C3 (centres unmarked) [Example 190] | 9120 nM | 
28 | CS(=O)(=O)NC1CN(C(=O)CC2(Cc3ccccc3)C3CC4CC2CC(C3)C4O)C1 (centres unmarked) [Example 195] |  | IC50 [1, 3]: 105 nM
29 | COC(=O)NC1CN(C(=O)C[C@]2(c3ccc(F)cc3)C3CC4CC2C[C@](C(N)=O)(C4)C3)C1 [Example 210] | 316 nM | 
30 | CNC(=O)NC1CN(C(=O)CC2(c3ccccc3)C3CC4CC2CC(C3)C4O)C1 (centres unmarked) [Example 212] | 127 nM | 
31 | CC1(CC(=O)N2CC(O)(c3ccc(F)cc3)C2)C2CC3CC1CC(C2)C3O (centres unmarked) [Example 213] |  | IC50 [1, 3]: 44 nM
32 | CNC(=O)OCC1CN(C(=O)CC2(c3ccccc3)C3CC4CC2CC(C3)C4O)C1 (centres unmarked) [Example 216] |  | IC50 [1, 3]: 5.1 nM
33 | O=C(CC1(c2ccc(F)cc2)C2CC3CC1CC(C2)C3O)N1CC(O)C1 (centres unmarked) [Example 217] |  | % inhibition (11beta-HSD1): 67%
34 | COC(=O)NC1CN(C(=O)CC2(c3ccc(F)cc3)C3CC4CC2CC(C3)O4)C1 (centres unmarked) [Example 235] | 520 nM | 
35 | CC1(C)[C@@H](OC(=O)CCC(=O)O)CC[C@]2(C)[C@H]3C(=O)C=C4[C@@H]5C[C@@](C)(C(=O)O)CC[C@]5(C)CC[C@@]4(C)[C@]3(C)CC[C@@H]12 [carbenoxolone] |  | hepatic glucose production [2]: decrease in hepatic glucose production

Second part, led by results:

Row | IC50 [1] | Structure (SMILES) | further results
36 | 8.8 nM | CNC(=O)OC1CN(C(=O)CC2(c3ccccc3)C3CC4CC2CC(C3)C4O)C1 (single isomer, unassigned) [Example 242] | % inhibition (11beta-HSD1): 65%
37 | 75 nM | O=C(NCc1nnn[nH]1)OC1CN(C(=O)CC2(c3ccccc3)C3CC4CC2CC(C3)C4O)C1 (single isomer, unassigned) [Example 259] | 
38 | 6.1 nM | O=C(CC1(c2ccccc2)C2CC3CC1CC(C2)C3O)N1CC(CO)C1 (single isomer, unassigned) [Example 265] | 
39 | 16 nM | O=C(CC1(c2ccccc2)C2CC3CC1CC(C2)C3O)N1C[C@H](O)CO1 (single isomer, unassigned) [Example 270] | 
40 | 260 nM | O=C(CC1(c2ccccc2)C2CC3CC1CC(C2)C3O)N1CCC[C@H](O)C1 (single isomer, unassigned) [Example 279] | 
41 | 175 nM | O=C(CC1(c2ccccc2)C2CC3CC1CC(C2)C3O)N1CCC[C@@H](O)C1 (single isomer, unassigned) [Example 281] | 
42 | 2.4 nM | O=C(CC1(c2ccc(F)cc2)C2CC3CC(C2)CC1C3)N1CC[C@H](O)C1 (single isomer, unassigned) [Example 302] | 
43 | 274 nM | CNC(=O)OC1CN(C(=O)CC2(c3ccc(F)cc3)C3CC4CC2CC(C3)O4)C1 (centres unmarked) [Example 236] | 
44 | 67 nM | CNC(=O)OC1CN(C(=O)C2(Cc3ccc(Cl)cc3)C3CC4CC(C3)CC2C4)C1 (centres unmarked) [Example 240] | 
45 | 16 nM | CC(C)(O)CNC(=O)OC1CN(C(=O)CC2(c3ccccc3)C3CC4CC2CC(C3)C4O)C1 (centres unmarked) [Example 243] | 
46 | 3 nM | O=C(CC1(c2ccccc2)C2CC3CC1CC(C2)C3O)N1CCSC1 (centres unmarked) [Example 247] | 
47 | 1720 nM | CS(=O)(=O)NC(=O)C1CN(C(=O)CC2(c3ccccc3)C3CC4CC2CC(C3)C4O)C1 (centres unmarked) [Example 250] | 
48 | 2.8 nM | CC(C)c1ccc(C2(CC(=O)N3CC(O)C3)C3CC4CC2CC(C3)C4O)cc1 (centres unmarked) [Example 292] | 
49 | 4.7 nM | O=C(CC1(c2ccc(F)cc2)C2CC3CC(C2)CC1C3)N1CCC(OCc2ccccc2)C1 (centres unmarked) [Example 303] | 
50 | 25 nM | CN(CCO)C(=O)CC1(c2ccc(F)cc2)C2CC3CC(C2)CC1C3 (centres unmarked) [Example 304] | 
51 | 28 nM | O=C(NC1CCN(C(=O)CC2(c3ccc(F)cc3)C3CC4CC(C3)CC2C4)C1)OCc1ccccc1 (centres unmarked) [Example 305] | 
52 | 383 nM | CCN(CC)C(=O)CC1(c2ccc(F)cc2)C2CC3CC1CC(F)(C3)C2 (centres unmarked) [Example 307] | 
